Assay results as given in the NIST ThermoML archive (doi:10.1016/j.jct.2004.12.014).

How the values were obtained:
[1] = xn = mol fraction of the nth substance listed; settings: 318.15 K, 101 kPa, Liquid
[2] = excess molar enthalpy (molar enthalpy of mixing); xn = mol fraction of the nth substance listed; settings: 318.15 K, 101 kPa, Liquid

CCCCCCCCCCCCCCCCC [heptadecane] + CCCCOC(=O)CC
Settings	excess molar enthalpy [kcal/mol]	excess molar volume [m3/mol]
[1], x2 = 0.1135	–	3.06e-07
[1], x2 = 0.2186	–	5.48e-07
[1], x2 = 0.3079	–	7.39e-07
[1], x2 = 0.3903	–	8.52e-07
[1], x2 = 0.4652	–	8.98e-07
[1], x2 = 0.5331	–	9.21e-07
[1], x2 = 0.5915	–	9.16e-07
[1], x2 = 0.6482	–	8.91e-07
[1], x2 = 0.7001	–	8.35e-07
[1], x2 = 0.7497	–	7.85e-07
[1], x2 = 0.7938	–	6.9e-07
[1], x2 = 0.8335	–	6.09e-07
[1], x2 = 0.8704	–	5.1e-07
[1], x2 = 0.907	–	4.01e-07
[1], x2 = 0.9407	–	2.87e-07
[1], x2 = 0.9701	–	1.43e-07
[2], x2 = 0.0939	0.101	–
[2], x2 = 0.1935	0.175	–
[2], x2 = 0.2953	0.241	–
[2], x2 = 0.3647	0.278	–
[2], x2 = 0.4302	0.3	–
[2], x2 = 0.4836	0.311	–
[2], x2 = 0.5295	0.314	–
[2], x2 = 0.5642	0.313	–
[2], x2 = 0.5727	0.312	–
[2], x2 = 0.5964	0.31	–
[2], x2 = 0.6386	0.298	–
[2], x2 = 0.6808	0.284	–
[2], x2 = 0.7248	0.264	–
[2], x2 = 0.7703	0.236	–
[2], x2 = 0.8172	0.202	–
[2], x2 = 0.8639	0.164	–
[2], x2 = 0.911	0.116	–
[2], x2 = 0.9568	0.0625	–

CCCCCCCCCCCCCCCCC [heptadecane] + CCCOC(=O)CC
Settings	excess molar enthalpy [kcal/mol]	excess molar volume [m3/mol]
[1], x2 = 0.0801	–	2.62e-07
[1], x2 = 0.1272	–	4.01e-07
[1], x2 = 0.2396	–	6.78e-07
[1], x2 = 0.3349	–	8.74e-07
[1], x2 = 0.4168	–	9.74e-07
[1], x2 = 0.4924	–	1.046e-06
[1], x2 = 0.5597	–	1.06e-06
[1], x2 = 0.6205	–	1.048e-06
[1], x2 = 0.6702	–	1.016e-06
[1], x2 = 0.7236	–	9.42e-07
[1], x2 = 0.7691	–	8.65e-07
[1], x2 = 0.81	–	7.81e-07
[1], x2 = 0.8486	–	6.76e-07
[1], x2 = 0.8816	–	5.66e-07
[1], x2 = 0.9135	–	4.36e-07
[1], x2 = 0.9437	–	3.04e-07
[1], x2 = 0.972	–	1.85e-07
[2], x2 = 0.1025	0.107	–
[2], x2 = 0.2064	0.193	–
[2], x2 = 0.3097	0.268	–
[2], x2 = 0.4012	0.318	–
[2], x2 = 0.4828	0.345	–
[2], x2 = 0.5438	0.354	–
[2], x2 = 0.5906	0.353	–
[2], x2 = 0.6218	0.348	–
[2], x2 = 0.6489	0.34	–
[2], x2 = 0.6819	0.322	–
[2], x2 = 0.7208	0.3	–
[2], x2 = 0.7615	0.276	–
[2], x2 = 0.8015	0.244	–
[2], x2 = 0.8436	0.205	–
[2], x2 = 0.8861	0.163	–
[2], x2 = 0.9283	0.11	–
[2], x2 = 0.9659	0.0516	–

CCCCCCCCCCCCCCCCC [heptadecane] + CCOC(=O)CC
Settings	excess molar enthalpy [kcal/mol]	excess molar volume [m3/mol]
[1], x2 = 0.066	–	2.51e-07
[1], x2 = 0.1449	–	5.19e-07
[1], x2 = 0.2675	–	8.82e-07
[1], x2 = 0.3677	–	1.105e-06
[1], x2 = 0.4535	–	1.215e-06
[1], x2 = 0.5272	–	1.268e-06
[1], x2 = 0.5954	–	1.278e-06
[1], x2 = 0.6524	–	1.237e-06
[1], x2 = 0.7503	–	1.094e-06
[1], x2 = 0.7915	–	9.93e-07
[1], x2 = 0.8304	–	8.71e-07
[1], x2 = 0.8626	–	7.59e-07
[1], x2 = 0.8973	–	6.31e-07
[1], x2 = 0.9257	–	4.92e-07
[1], x2 = 0.9523	–	3.54e-07
[1], x2 = 0.9771	–	1.83e-07
[2], x2 = 0.1049	0.125	–
[2], x2 = 0.213	0.232	–
[2], x2 = 0.3031	0.311	–
[2], x2 = 0.3846	0.366	–
[2], x2 = 0.4607	0.402	–
[2], x2 = 0.5315	0.42	–
[2], x2 = 0.5885	0.421	–
[2], x2 = 0.6272	0.413	–
[2], x2 = 0.6888	0.386	–
[2], x2 = 0.7229	0.364	–
[2], x2 = 0.7635	0.334	–
[2], x2 = 0.8055	0.296	–
[2], x2 = 0.8479	0.254	–
[2], x2 = 0.8897	0.202	–
[2], x2 = 0.9313	0.138	–
[2], x2 = 0.9727	0.0626	–

CCC(=O)OC [methyl propanoate] + CCCCCCC
Settings	excess molar enthalpy [kcal/mol]	excess molar volume [m3/mol]
[1], x1 = 0.0406	–	2.5e-07
[1], x1 = 0.0927	–	5.08e-07
[1], x1 = 0.1719	–	8.36e-07
[1], x1 = 0.248	–	1.063e-06
[1], x1 = 0.3249	–	1.222e-06
[1], x1 = 0.3904	–	1.27e-06
[1], x1 = 0.4571	–	1.288e-06
[1], x1 = 0.5214	–	1.254e-06
[1], x1 = 0.5761	–	1.192e-06
[1], x1 = 0.6333	–	1.105e-06
[1], x1 = 0.6853	–	1.008e-06
[1], x1 = 0.7372	–	9.01e-07
[1], x1 = 0.7844	–	7.75e-07
[1], x1 = 0.8305	–	6.37e-07
[1], x1 = 0.8748	–	4.85e-07
[1], x1 = 0.9184	–	3.36e-07
[1], x1 = 0.9596	–	1.83e-07
[2], x1 = 0.0703	0.0855	–
[2], x1 = 0.154	0.176	–
[2], x1 = 0.2369	0.249	–
[2], x1 = 0.3018	0.296	–
[2], x1 = 0.3693	0.331	–
[2], x1 = 0.4258	0.35	–
[2], x1 = 0.4809	0.362	–
[2], x1 = 0.5084	0.363	–
[2], x1 = 0.5258	0.363	–
[2], x1 = 0.5447	0.361	–
[2], x1 = 0.586	0.353	–
[2], x1 = 0.6301	0.34	–
[2], x1 = 0.6752	0.32	–
[2], x1 = 0.7232	0.295	–
[2], x1 = 0.7744	0.259	–
[2], x1 = 0.8241	0.215	–
[2], x1 = 0.8704	0.168	–
[2], x1 = 0.9177	0.112	–
[2], x1 = 0.9639	0.0537	–

CCC(=O)OC [methyl propanoate] + CCCCCCCCC
Settings	excess molar enthalpy [kcal/mol]	excess molar volume [m3/mol]
[1], x1 = 0.047	–	2.8e-07
[1], x1 = 0.111	–	5.7e-07
[1], x1 = 0.2022	–	9.27e-07
[1], x1 = 0.2873	–	1.164e-06
[1], x1 = 0.3671	–	1.333e-06
[1], x1 = 0.4381	–	1.406e-06
[1], x1 = 0.5037	–	1.425e-06
[1], x1 = 0.5664	–	1.423e-06
[1], x1 = 0.6242	–	1.359e-06
[1], x1 = 0.6768	–	1.278e-06
[1], x1 = 0.7271	–	1.166e-06
[1], x1 = 0.7724	–	1.037e-06
[1], x1 = 0.817	–	8.78e-07
[1], x1 = 0.856	–	7.5e-07
[1], x1 = 0.896	–	5.89e-07
[1], x1 = 0.9315	–	3.93e-07
[1], x1 = 0.9661	–	1.98e-07
[2], x1 = 0.084	0.111	–
[2], x1 = 0.1528	0.19	–
[2], x1 = 0.2279	0.261	–
[2], x1 = 0.2957	0.313	–
[2], x1 = 0.3549	0.35	–
[2], x1 = 0.4111	0.375	–
[2], x1 = 0.4611	0.391	–
[2], x1 = 0.5059	0.4	–
[2], x1 = 0.546	0.402	–
[2], x1 = 0.5832	0.399	–
[2], x1 = 0.6314	0.386	–
[2], x1 = 0.6645	0.371	–
[2], x1 = 0.7099	0.345	–
[2], x1 = 0.7579	0.311	–
[2], x1 = 0.808	0.268	–
[2], x1 = 0.8604	0.212	–
[2], x1 = 0.9122	0.148	–
[2], x1 = 0.9599	0.0769	–

CCC(=O)OC [methyl propanoate] + CCCCCCCCCCC
Settings	excess molar enthalpy [kcal/mol]	excess molar volume [m3/mol]
[1], x1 = 0.0968	–	4.8e-07
[1], x1 = 0.1299	–	6.34e-07
[1], x1 = 0.2313	–	1.02e-06
[1], x1 = 0.3207	–	1.285e-06
[1], x1 = 0.4052	–	1.433e-06
[1], x1 = 0.4772	–	1.508e-06
[1], x1 = 0.5465	–	1.514e-06
[1], x1 = 0.6062	–	1.482e-06
[1], x1 = 0.6609	–	1.417e-06
[1], x1 = 0.7121	–	1.302e-06
[1], x1 = 0.7581	–	1.188e-06
[1], x1 = 0.8001	–	1.041e-06
[1], x1 = 0.8396	–	9.14e-07
[1], x1 = 0.876	–	7.62e-07
[1], x1 = 0.9105	–	6.09e-07
[1], x1 = 0.9416	–	4.25e-07
[1], x1 = 0.9727	–	2.27e-07
[2], x1 = 0.0844	0.118	–
[2], x1 = 0.1733	0.219	–
[2], x1 = 0.2574	0.3	–
[2], x1 = 0.327	0.355	–
[2], x1 = 0.3915	0.394	–
[2], x1 = 0.4431	0.416	–
[2], x1 = 0.4953	0.432	–
[2], x1 = 0.5414	0.436	–
[2], x1 = 0.5798	0.434	–
[2], x1 = 0.6125	0.428	–
[2], x1 = 0.6312	0.422	–
[2], x1 = 0.6661	0.406	–
[2], x1 = 0.7078	0.382	–
[2], x1 = 0.7509	0.348	–
[2], x1 = 0.7942	0.307	–
[2], x1 = 0.8346	0.263	–
[2], x1 = 0.8799	0.21	–
[2], x1 = 0.9235	0.148	–
[2], x1 = 0.9624	0.0795	–
